Patent US4426519A, “7-(2-Amino-4-thiazolyl)-acetamido cephalosporanic acids” (Roussel Uclaf, priority 1979, dated 1984)
Where a name gives a salt, the structure may show the parent alone. Read-outs that look alike come from different tables or passages of the source.

Legend:
[1] = tested on: Bacillus subtilis ATCC 6 633; assay: MIC, dilution in liquid medium; assay type: cell-based
Experimental: (§1) The method used was a dilution of a liquid medium where a series of tubes received the same quantity of a sterile nutritive media and increasing doses of the test compounds were placed therein. Then each tube was seeded with a bacterial strain and was incubated for 24 to 48 hours at 37° C. in an oven. The increasing inhibition was determined by transillulumination to determine the minimum inhibiting concentration (MIC in μg/ml) and the results are reported in the following Tables.

Enterobacter cloacae 681 = assay: MIC, dilution in liquid medium; assay type: cell-based
Experimental: as §1

[2] = tested on: Escherichia Coli Resistant Gentamycine, Tobramycine R 55 123 D; assay: MIC, dilution in liquid medium; assay type: cell-based; settings: read-out: MIC
Experimental: as §1

[3] = tested on: Escherichia Coli Resistant Tetracycline ATCC 11 303; assay: MIC, dilution in liquid medium; assay type: cell-based
Experimental: as §1

[4] = tested on: Escherichia Coli sensitive Tetracycline ATCC 9 637; assay: MIC, dilution in liquid medium; assay type: cell-based
Experimental: as §1

[5] = tested on: Klebsiella pneumoniae 2 536 Resistant Gentamycine; assay: MIC, dilution in liquid medium; assay type: cell-based
Experimental: as §1

[6] = tested on: Klebsiella pneumoniae Exp. 52 145; assay: MIC, dilution in liquid medium; assay type: cell-based; settings: read-out: MIC
Experimental: as §1

[7] = tested on: Proteus mirabilis (indol-) A 235; assay: MIC, dilution in liquid medium; assay type: cell-based
Experimental: as §1

Providencia Du 48 = assay: MIC, dilution in liquid medium; assay type: cell-based
Experimental: as §1

[8] = tested on: Pseudomonas 8951 Resistant Gentamycine Tetracycline; assay: MIC, dilution in liquid medium; assay type: cell-based
Experimental: as §1

[9] = tested on: Salmonella typhimurium 420; assay: MIC, dilution in liquid medium; assay type: cell-based; settings: Salmonella enterica, read-out: MIC
Experimental: as §1

[10] = tested on: Serratia Resistant Gentamycine 2 532; assay: MIC, dilution in liquid medium; assay type: cell-based; settings: read-out: MIC
Experimental: as §1

[11] = tested on: Staphylococcus aureus ATCC 6 538 Pen Sensitive; assay: MIC, dilution in liquid medium; assay type: cell-based
Experimental: as §1

[12] = tested on: Staphylococcus aureus UC 1 128 Pen-resistant; assay: MIC, dilution in liquid medium; assay type: cell-based
Experimental: as §1

[13] = tested on: Staphylococcus aureus exp.n°54 146; assay: MIC, dilution in liquid medium; assay type: cell-based
Experimental: as §1

[14] = tested on: Streptococcus pyogenes A 561; assay: MIC, dilution in liquid medium; assay type: cell-based
Experimental: as §1

Escherichia coli TO26 B6 = assay: Experimental infection with Escherichia coli TO26 B6 in mice; assay type: in vivo; settings: for No. of mice surviving 8th day: subcutaneous 1, 5 and 24 hours after infection, control 0/10; for Mortality after hours: subcutaneous, group of 10 mice
Experimental: The product of Example 1 was studied for its activity against an experimental infection of Escherichia coil in groups of 10 male mice weighing about 21.5 g. The mice received an intraperitoneal injection of 0.5 ml of a 24 hour old culture in a nutritive media of Escherichia Coli TO26 B6 of the Pasteur Institute diluted 1/5 with distilled water. The test product was administered subcutaneously 1 hour and 5 and 24 hours after the infection and the number of dead was determined after 8 days.

Proteus mirabilis A 235 = assay: Experimental infection of Proteus mirabilis in mice; assay type: in vivo; settings: for Mice surviving on 8th day: subcutaneous 1, 5 and 24 hours after infection, controls 0/10; for Mortality after hours: subcutaneous, group of 10 mice
Experimental: Groups of 10 mice with an average weight of 21.5 g received intraperitoneally 0.5 ml of a 24 hour old culture in oxoid bouillon of Proteus mirabilis A 235 diluted 1/10 with distilled water. The mice then received subcutaneously the compound of Example 1 one hour and 5 and 24 hours after the infection and the results are reported in the following Table.

Proteus Morganii A236 = assay: Experimental infection of Proteus Morganii A236 in mice; assay type: in vivo; settings: for Mice surviving on 8th day: cutaneously 1,5 and 24 hours after injection, controls 0/10; for Mortality after hours: cutaneously, group of 10 mice
Experimental: The activity of the product of Example 1 against an experimental infection of Proteus Morganii […] was determined in groups of 10 mice weighing an average of 20.5 g which were infected by intraperitoneal injection of 0.5 ml of a culture thereof in a medium with a pH of 7 diluted to one tenth.

[15] = tested on: Klebsiella Pneumonia No. 52,145; assay: Experimental infection of Klebsiella Pneumoniae in mice; assay type: in vivo; settings: for Mice surviving on 8th day: by injection 1,5 and 24 hours after infection, controls 0/10; for Mortality after hours: by injection, group of 10 mice
Experimental: The activity of the compound of Example 1 against an experimental infection of Klebsiella Pneumonia No. 52,145 was determined on groups of 10 mice having an average weight of 21 g by intraperitoneal injection of 0.5 ml of a culture thereof with a pH of 6 diluted to 1/1500.

SMILES: CC(=O)OCC1=C(C(=O)O)N2C(=O)C(NC(=O)/C(=N\OCCSC(=N)N)c3csc(N)n3)C2SC1 (stereo not drawn) [Example 1, Trifluoroacetate of the syn isomer of 3-acetoxymethyl-7-[2-(2-amino-4-thiazolyl)-2-(2-aminoiminomethylthio-ethoxyimino)acetamido]-ceph-3-eme-4-carboxylic acid]
- MIC ([1]; ATCC6, 24 h): 1 µg/mL
- MIC ([1]; ATCC6, 48 h): 1 µg/mL
- MIC (Enterobacter cloacae 681; Enterobacter cloacae, 681, 24 h): 2 µg/mL
- MIC (Enterobacter cloacae 681; Enterobacter cloacae, 681, 48 h): 2 µg/mL
- MIC ([2]; 24 h): 0.5 µg/mL
- MIC ([2]; 48 h): 0.5 µg/mL
- MIC ([3]; ATCC11, 24 h): 0.05 µg/mL
- MIC ([3]; ATCC11, 48 h): 0.05 µg/mL
- MIC ([4]; ATCC9, 24 h): 1 µg/mL
- MIC ([4]; ATCC9, 48 h): 1 µg/mL
- MIC ([5]; 24 h): 1 µg/mL
- MIC ([5]; 48 h): 2 µg/mL
- MIC ([6]; EXP.52145, 24 h): 0.5 µg/mL
- MIC ([6]; EXP.52145, 48 h): 0.5 µg/mL
- MIC ([7]; 24 h): 0.1 µg/mL
- MIC ([7]; 48 h): 0.1 µg/mL
- MIC (Providencia Du 48; DU48, 24 h): 2 µg/mL
- MIC (Providencia Du 48; DU48, 48 h): 3 µg/mL
- MIC ([8]; 24 h): 20 µg/mL
- MIC ([8]; 48 h): 20 µg/mL
- MIC ([9]; 24 h): 0.5 µg/mL
- MIC ([9]; 48 h): 0.5 µg/mL
- MIC ([10]; 24 h): 0.5 µg/mL
- MIC ([10]; 48 h): 0.5 µg/mL
- MIC ([11]; ATCC6, 24 h): 2 µg/mL
- MIC ([11]; ATCC6, 48 h): 2 µg/mL
- MIC ([12]; UC1, 24 h): 2 µg/mL
- MIC ([12]; UC1, 48 h): 3 µg/mL
- MIC ([13]; 24 h): 2 µg/mL
- MIC ([13]; 48 h): 2 µg/mL
- MIC ([14]; A561, 24 h): 0.02 µg/mL
- MIC ([14]; A561, 48 h): 0.02 µg/mL
- No. of mice surviving 8th day (Escherichia coli TO26 B6; dose 0.1 mg): 6/10
- Mortality after hours (Escherichia coli TO26 B6; dose 0.1 mg, 21H30): 1
- Mortality after hours (Escherichia coli TO26 B6; dose 0.1 mg, 24 H): 1
- Mortality after hours (Escherichia coli TO26 B6; dose 0.1 mg, 28 H): 1
- Mortality after hours (Escherichia coli TO26 B6; dose 0.1 mg, 36 H): 1
- No. of mice surviving 8th day (Escherichia coli TO26 B6; dose 0.25 mg): 10/10
- Mice surviving on 8th day (Proteus mirabilis A 235; dose 0,1 mg): 10/10
- Mice surviving on 8th day (Proteus mirabilis A 235; dose 0,05 mg): 10/10
- Mice surviving on 8th day (Proteus mirabilis A 235; dose 0,5 mg): 10/10
- Mice surviving on 8th day (Proteus mirabilis A 235; dose 0,25 mg): 10/10
- Mice surviving on 8th day (Proteus mirabilis A 235; dose 0,025 mg): 7/10
- Mortality after hours (Proteus mirabilis A 235; dose 0,025 mg, 23H45): 1
- Mortality after hours (Proteus mirabilis A 235; dose 0,025 mg, 25 H): 1
- Mortality after hours (Proteus mirabilis A 235; dose 0,025 mg, 31 H): 1
- Mice surviving on 8th day (Proteus Morganii A236; dose 0,1 mg): 10/10
- Mice surviving on 8th day (Proteus Morganii A236; dose 0,05 mg): 2/10
- Mice surviving on 8th day (Proteus Morganii A236; dose 0,5 mg): 10/10
- Mortality after hours (Proteus Morganii A236; dose 0,05 mg, 4H): 1
- Mortality after hours (Proteus Morganii A236; dose 0,05 mg, 6H15): 1
- Mortality after hours (Proteus Morganii A236; dose 0,05 mg, 6H): 2
- Mortality after hours (Proteus Morganii A236; dose 0,05 mg, 21H10): 3
- Mortality after hours (Proteus Morganii A236; dose 0,05 mg, 45H20): 1
- Mice surviving on 8th day (Proteus Morganii A236; dose 0,25 mg): 10/10
- Mice surviving on 8th day ([15]; dose 0,1 mg): 6/10
- Mortality after hours ([15]; dose 0,1 mg, 4 J): 1
- Mortality after hours ([15]; dose 0,1 mg, 5 J): 1
- Mortality after hours ([15]; dose 0,1 mg, 6 J): 1
- Mortality after hours ([15]; dose 0,1 mg, 8 J): 1
- Mice surviving on 8th day ([15]; dose 0,5 mg): 9/10
- Mortality after hours ([15]; dose 0,5 mg, 6 J): 1
- Mice surviving on 8th day ([15]; dose 0,25 mg): 8/10
- Mortality after hours ([15]; dose 0,25 mg, 4 J): 1
- Mortality after hours ([15]; dose 0,25 mg, 6 J): 1
- Mice surviving on 8th day ([15]; dose 1 mg): 10/10
- Mice surviving on 8th day ([15]; dose 1,5 mg): 10/10
